Measurements: ChEMBL document CHEMBL1201862, “PubChem BioAssay data set” (2004)
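A five-concentration, 48-hour dose response in 96-well plates underlies each endpoint, interpolated linearly between surrounding concentrations. Here, GI50 denotes the concentration required for 50% inhibition of growth.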 Active and inactive are the calls of the source. Rule as the data show it: active = GI50 up to about 1.1 µM and inactive = higher.

Key:
Experiment in all cases: inhibition of tumour cell growth, NCI panel, 48 h
EKVX = system: EKVX
SF-295 = system: SF-295
MDA-MB-231 = system: MDA-MB-231
Malme-3M = system: Malme-3M
NCI-H522 = system: NCI-H522
SR = system: SR
A498 = system: A498
Hs-578T = system: Hs-578T
SK-MEL-2 = system: SK-MEL-2
SK-MEL-5 = system: SK-MEL-5
SF-268 = system: SF-268
HCT-15 = system: HCT-15
OVCAR-8 = system: OVCAR-8
M14 = system: M14
MOLT-4 = system: MOLT-4
NCI/ADR-RES = system: NCI/ADR-RES
RPMI-8226 = system: RPMI-8226
HOP-92 = system: HOP-92
CCRF-CEM = system: CCRF-CEM
BT-549 = system: BT-549

SMILES | GI50 (EKVX) | GI50 (SF-295) | GI50 (MDA-MB-231) | GI50 (Malme-3M) | GI50 (NCI-H522) | GI50 (SR) | GI50 (A498) | GI50 (Hs-578T) | GI50 (SK-MEL-2) | GI50 (SK-MEL-5) | GI50 (SF-268) | GI50 (HCT-15) | GI50 (OVCAR-8) | GI50 (M14) | GI50 (MOLT-4) | GI50 (NCI/ADR-RES) | GI50 (RPMI-8226) | GI50 (HOP-92) | GI50 (CCRF-CEM) | GI50 (BT-549)
Oc1cc(-c2cccc(OC(F)(F)F)c2)nc2ccc(N3CCCC3)cc12 | 0.031 µM (active) | < 0.0001 µM (active) | 0.00156 µM (active) | 0.000114 µM (active) | 0.000376 µM (active) | < 0.0001 µM (active) | 0.000322 µM (active) | 0.01 µM (active) | 0.000127 µM (active) | 0.000209 µM (active) | 0.000306 µM (active) | 0.0004 µM | 0.000426 µM (active) | 0.00012 µM (active) | 0.000335 µM (active) | 0.00016 µM (active) | 0.000261 µM (active) | 0.0731 µM (active) | 0.00012 µM (active) | –
O=C(O)CCSc1nnc(COc2ccc(Cl)cc2)n1-c1ccccc1 | > 100 µM (inactive) | > 100 µM (inactive) | > 100 µM (inactive) | > 100 µM (inactive) | > 100 µM (inactive) | – | > 100 µM (inactive) | – | > 100 µM (inactive) | – | > 100 µM (inactive) | > 100 µM | > 100 µM (inactive) | > 100 µM (inactive) | > 100 µM (inactive) | > 100 µM (inactive) | – | > 100 µM (inactive) | 95.3 µM (inactive) | –
CCCCCCCCCC(=O)OCC1OC(n2cc(F)c(=O)[nH]c2=O)C(NC(=O)OCc2ccccc2)C(OC(=O)CCCCCCCCC)C1O (centres undefined) | 31.6 µM (inactive) | 40 µM (inactive) | – | 24.2 µM (inactive) | 20.9 µM (inactive) | 17.5 µM (inactive) | 25.1 µM (inactive) | – | 31 µM (inactive) | 20.3 µM (inactive) | 51.4 µM (inactive) | 35.2 µM | 24.3 µM (inactive) | 52.2 µM (inactive) | 18.7 µM (inactive) | – | 21.4 µM (inactive) | 18.2 µM (inactive) | 21.8 µM (inactive) | –
C[C@H](C1CC2(C)OC2(C)C(=O)O1)[C@H]1CC[C@H]2[C@@H]3[C@@H]4O[C@@H]4[C@@]4(O)CC=CC(=O)[C@]4(C)[C@H]3CC[C@]12C (some centres undefined) | > 50 µM (inactive) | > 50 µM (inactive) | > 50 µM (inactive) | – | 36.6 µM (inactive) | – | > 50 µM (inactive) | – | > 50 µM (inactive) | > 50 µM (inactive) | > 50 µM (inactive) | > 50 µM | > 50 µM (inactive) | > 50 µM (inactive) | > 50 µM (inactive) | > 50 µM (inactive) | > 50 µM (inactive) | > 50 µM (inactive) | – | > 50 µM (inactive)
CC(=O)OC1OC2C(NC(=O)OC(C)(C)C)C1CC2(OCc1ccccc1)OCc1ccccc1 (centres undefined) | 34.7 µM (inactive) | 35.2 µM (inactive) | – | 14.4 µM (inactive) | 15.1 µM (inactive) | 17.8 µM (inactive) | 19.4 µM (inactive) | – | 19.8 µM (inactive) | 17.6 µM (inactive) | 35.7 µM (inactive) | 32.3 µM | 53.8 µM (inactive) | 20.5 µM (inactive) | 9.71 µM (inactive) | – | 11.6 µM (inactive) | 12.5 µM (inactive) | 18.3 µM (inactive) | –
C[C@@]1(O)CC[C@]2(C)C3CCCC3[C@H]12 (some centres undefined) | > 100 µM (inactive) | > 100 µM (inactive) | – | > 100 µM (inactive) | > 100 µM (inactive) | > 100 µM (inactive) | > 100 µM (inactive) | – | > 100 µM (inactive) | > 100 µM (inactive) | > 100 µM (inactive) | > 100 µM | > 100 µM (inactive) | > 100 µM (inactive) | > 100 µM (inactive) | – | > 100 µM (inactive) | > 100 µM (inactive) | > 100 µM (inactive) | –
N#C/C(c1nc2ccccc2[nH]1)=c1\s/c(=C/c2ccc(Cl)cc2)c(=O)n1-c1ccccc1 | > 100 µM (inactive) | – | – | > 100 µM (inactive) | > 100 µM (inactive) | > 100 µM (inactive) | > 100 µM (inactive) | – | > 100 µM (inactive) | > 100 µM (inactive) | > 100 µM (inactive) | > 100 µM | > 100 µM (inactive) | > 100 µM (inactive) | > 100 µM (inactive) | – | > 100 µM (inactive) | > 100 µM (inactive) | > 100 µM (inactive) | –
O=[N+]([O-])c1ccc2c(c1)nc1n2C(c2c(F)cccc2F)SC1 (centres undefined) | > 100 µM (inactive) | > 100 µM (inactive) | > 100 µM (inactive) | > 100 µM (inactive) | > 100 µM (inactive) | > 100 µM (inactive) | – | > 100 µM (inactive) | > 100 µM (inactive) | > 100 µM (inactive) | > 100 µM (inactive) | > 100 µM | > 100 µM (inactive) | > 100 µM (inactive) | > 100 µM (inactive) | > 100 µM (inactive) | > 100 µM (inactive) | 62.1 µM (inactive) | > 100 µM (inactive) | –
CC1=C(C(=O)CC(=O)C(=O)Nc2ccccc2C)Sc2ccccc2N1 | > 100 µM (inactive) | > 100 µM (inactive) | – | > 100 µM (inactive) | > 55 µM (inactive) | > 100 µM (inactive) | > 100 µM (inactive) | – | > 100 µM (inactive) | > 100 µM (inactive) | > 67 µM (inactive) | > 100 µM | > 100 µM (inactive) | > 100 µM (inactive) | > 100 µM (inactive) | – | > 45 µM (inactive) | > 67.9 µM (inactive) | > 57.1 µM (inactive) | –
CC1(C)C(=O)C(=Cc2ccco2)C1=O | > 100 µM (inactive) | > 100 µM (inactive) | – | > 100 µM (inactive) | > 100 µM (inactive) | > 100 µM (inactive) | > 100 µM (inactive) | – | > 100 µM (inactive) | > 100 µM (inactive) | > 100 µM (inactive) | > 100 µM | > 100 µM (inactive) | > 100 µM (inactive) | > 100 µM (inactive) | – | > 100 µM (inactive) | > 100 µM (inactive) | > 100 µM (inactive) | –
COc1ccc(CCNC(=S)NC=C2C(=O)c3ccccc3C2=O)cc1OC | > 100 µM (inactive) | > 100 µM (inactive) | 68.1 µM (inactive) | > 100 µM (inactive) | > 100 µM (inactive) | 82 µM (inactive) | > 100 µM (inactive) | 14.8 µM (inactive) | > 100 µM (inactive) | > 100 µM (inactive) | > 100 µM (inactive) | > 100 µM | > 100 µM (inactive) | > 100 µM (inactive) | 83.9 µM (inactive) | > 100 µM (inactive) | 17.9 µM (inactive) | 0.741 µM (active) | > 100 µM (inactive) | –
O=C(c1ccccc1)C1(Br)S(=O)(=O)OCCOS1(=O)=O | > 100 µM (inactive) | > 100 µM (inactive) | – | > 100 µM (inactive) | > 100 µM (inactive) | > 100 µM (inactive) | > 100 µM (inactive) | – | > 100 µM (inactive) | > 100 µM (inactive) | > 100 µM (inactive) | > 100 µM | > 100 µM (inactive) | > 100 µM (inactive) | > 100 µM (inactive) | – | > 100 µM (inactive) | > 100 µM (inactive) | > 100 µM (inactive) | –
CC1=CCC[C@H]2[C@](C)(CC3=CC(=O)C4SCCSC4C3=O)[C@@H](C)CC[C@]12C (some centres undefined) | 21.3 µM (inactive) | 10.9 µM (inactive) | 13.2 µM (inactive) | – | – | 11.1 µM (inactive) | 16.1 µM (inactive) | – | 1.71 µM (inactive) | 13.8 µM (inactive) | – | 23.3 µM | 19.2 µM (inactive) | 14.3 µM (inactive) | 21.6 µM (inactive) | 19.1 µM (inactive) | 14.1 µM (inactive) | 31.4 µM (inactive) | 11 µM (inactive) | 20.6 µM (inactive)
CC[C@]1(Cc2ccc(OC)c(OC)c2)[C@@H]2C[C@@H](C(=O)OC)ON2O[C@H](OC2CCCC2(c2ccccc2)c2ccccc2)[C@@H]1OC(C)=O (some centres undefined) | > 100 µM (inactive) | > 100 µM (inactive) | > 100 µM (inactive) | – | – | 66.7 µM (inactive) | – | – | > 100 µM (inactive) | > 100 µM (inactive) | > 100 µM (inactive) | > 100 µM | > 100 µM (inactive) | > 100 µM (inactive) | > 100 µM (inactive) | > 100 µM (inactive) | – | – | > 100 µM (inactive) | > 100 µM (inactive)
COc1ccc(/C=C\c2cc(OC)c(OC)c(OC)c2)cc1 | 0.00264 µM (active) | 0.000185 µM (active) | – | 0.00184 µM (active) | 0.000364 µM (active) | < 0.01 µM (active) | < 0.01 µM (active) | – | < 0.01 µM (active) | < 0.0001 µM (active) | 0.000766 µM (active) | 0.000448 µM | 0.000832 µM (active) | 0.00024 µM (active) | 0.000506 µM (active) | – | 0.00049 µM (active) | 0.0127 µM (active) | 0.000269 µM (active) | –
CCCNC1=Nc2ccccc2[C@@H]2N(C)c3ccccc3C(C)C[C@]12C (some centres undefined) | 32.4 µM (inactive) | 16.3 µM (inactive) | 15.8 µM (inactive) | 16.6 µM (inactive) | 18.2 µM (inactive) | – | 14.4 µM (inactive) | 19.1 µM (inactive) | 13.2 µM (inactive) | 15.6 µM (inactive) | 21.6 µM (inactive) | 23.6 µM | 14.7 µM (inactive) | 17.7 µM (inactive) | 18.1 µM (inactive) | 22.4 µM (inactive) | 18.7 µM (inactive) | – | 26 µM (inactive) | –
CCn1cc(C(=O)O)c(=O)c2ccc(C)nc21 [NALIDIXIC ACID] | > 100 µM (inactive) | > 100 µM (inactive) | > 100 µM (inactive) | > 100 µM (inactive) | > 100 µM (inactive) | > 100 µM (inactive) | – | > 100 µM (inactive) | > 100 µM (inactive) | > 100 µM (inactive) | > 100 µM (inactive) | > 100 µM | > 100 µM (inactive) | > 100 µM (inactive) | > 100 µM (inactive) | > 100 µM (inactive) | > 100 µM (inactive) | 26.9 µM (inactive) | > 100 µM (inactive) | –
